# Reference: patent US9975852B2, “Quinoline sulfonyl derivatives and uses thereof” (Health Sciences North Research Institute, priority 2013, dated 2018)
# Experiments:
# [1] = test system: HeLa; assay: SRB antiproliferative assay, HeLa; assay type: cell-based; settings: Homo sapiens
# Method: Antiproliferative effects were determined by a sulforhodamine B (SRB) based protocol. For a typical screening experiment, 5,000-10,000 cells were inoculated into 100 μl medium per well of a 96-well microtiter plate as described previously. Briefly, after the inoculation, the microtiter plate was incubated at 37° C., 5% CO2, 95% air and 100% relative humidity for 24 h, prior to addition of experimental drugs. Some of the sample wells were fixed with 25 μl of 50% trichloroacetic acid (TCA) as a control of the cell population for each cell line at the time of drug addition (Tz). An aliquot of the frozen stock was thawed and diluted to the desired final maximum test-concentration with complete medium. […] The cells “stained” with SRB were solubilized with 10 mM trizma base, and the absorbance was read on an automated plate reader at a wavelength of 515-564 nm. The relative growth rate (%) was calculated for each of the compound concentrations according to the following formula: (Ti−Tz)/(C−Tz)×100 In the formula, time zero (Tz), control growth (C), and OD for different concentration of tested compounds (Ti). […] Values were calculated for each of these parameters if the level of activity was reached. However, if the effect was not reached or was exceeded, the value for that parameter was expressed as greater or less than the maximum or minimum concentration tested. […]
# [2] = test system: Jurkat lymphoma cells; assay: Flow cytometry, apoptosis of Jurkat lymphoma cells; assay type: cell-based; settings: 0.75 μM VR-23, 48 hours
# Method: Asynchronously growing Jurkat lymphoma cells were incubated for 48 hours in the absence (sham control) or presence of Bortezomib alone or in combination with VR-23.
# [3] = Organ weight and histology (liver, spleen, kidney, lung) of ATH490 mice
# Method: All values are presented as mean±S.E.M. Analyses were performed using GraphPad Prism software (GraphPad Software). Comparison between the groups was made by p value determination using one-way ANOVA. A p value of <0.05 was considered to be statistically significant. […] Each organ weight (%) is normalized with total body weight (BW).
# The H&E stained slides were taken with a 20× objective using a Zeiss EPI-fluorescent microscope (bright field). […] At least 10 fields for each slide (one slide per mouse, and 3 mice per group) were examined.
# Images were taken with a 10× objective using a Zeiss EPI-fluorescent microscope. […] Drug administration was carried out as described in Table IX and in the Materials and Methods section herein with respect to Animal Studies.
# The images of the H&E stained renal tissues were taken with a Zeiss EPI-fluorescent (bright field) microscope using a 10× objective.
# [4] = VR-23 30 mg/kg, paclitaxel 20 mg/kg
compound,measurement,setting,value
"O=[N+]([O-])c1ccc(S(=O)(=O)N2CCN(c3ccnc4cc(Cl)ccc34)CC2)c([N+](=O)[O-])c1 [Compound 1, 7-Chloro-4-(4-(2,4-dinitrophenylsulfonyl)piperazin-1-yl)quinoline]",IC50,[1],4.4 ± 3 µM
same,Cell killing by apoptosis,[2],"neither 6 nM of Bortezomib (FIG. 4, ii) nor 0.75 μM of VR-23 (FIG. 4, iv) induced substantial cell killing by apoptosis"
same,Microscopic Changes (liver),"[3]; ATH490 mice, VR-23, 30 mg/week, Paclitaxel, 20 mg/week",Largely (>95% of cases) normal
same,Effects on vital organs by their weights,"[3]; VR-23 30 mg/kg, 29 days post-treatment",did not cause any notable ill effects on vital organs
same,Mitotic index in the liver,[3]; [4],did not cause an increase in mitotic index
same,Spleen histology (H&E),[3]; [4],did not cause any notable toxicity to the spleen
same,"Kidney histology (H&E), nephrotoxicity","[3]; VR-23 30 mg/kg, paclitaxel 20 mg/kg, four weeks",did not cause any notable toxicity to the kidney
